According to patent US6603014B1, “Use of cyclic enamines as light protection agents” (BASF Aktiengesellschaft, priority 1999, dated 2003):
Each block holds one compound with its values, some of them ahead of it.

Assay: UV absorption properties (λmax and specific absorbance E 1/1) of the light protection agents
Assay type: physicochemical
Set-up: unit not given here
Description: Further Examples 2 to 23 as in Tables 1, 2 and 3 are obtained analogously. Substituents in the aromatic rings can also be introduced later.

[1] = Table 2, specific absorbance at λmax
[2] = Table 1, specific absorbance at λmax
[3] = Table 3, specific absorbance at λmax

SMILES: COC(=O)C(C#N)=C1Nc2ccccc2N1 [Example 3]
- λmax (Table 1, UV absorption maximum): 316
- E^11 [2]: 1986

SMILES: CCOC(=O)c1ccc2c(c1)NC(=C(C#N)C#N)N2 [Example 6]
- λmax (Table 1, UV absorption maximum): 334
- E^11 [2]: 821

SMILES: CCCCCCN1C(=C(C#N)C(=O)OC)Sc2ccccc21 [Example 17]
- λmax (Table 2, UV absorption maximum): 340
- E^11 [1]: 1200

SMILES: COC(=O)C(C#N)=C1Nc2ccc(OC)cc2N1 [Example 5]
- λmax (Table 1, UV absorption maximum): 328
- E^11 [2]: 1601

SMILES: CCOC(=O)c1ccc2c(c1)NC(=C(C#N)C(=O)OC)N2 [Example 7]
- λmax (Table 1, UV absorption maximum): 332
- E^11 [2]: 952

SMILES: Cc1ccc2c(c1)NC(=C(C#N)C#N)N2 [Example 8]
- λmax (Table 1, UV absorption maximum): 318
- E^11 [2]: 2055

SMILES: N#CC(C#N)=C1Nc2ccccc2N1 [Example 2]
- λmax (Table 1, UV absorption maximum): 314
- E^11 [2]: 2297

SMILES: COc1ccc2c(c1)NC(=C(C#N)C#N)N2 [Example 4]
- λmax (Table 1, UV absorption maximum): 326
- E^11 [2]: 1784

SMILES: COC(=O)C(C#N)=C1Nc2ccccc2S1 [Example 1]
- λmax (Table 1, UV absorption maximum): 336
- E^11 [2]: 1723

SMILES: CCCCOC(=O)C(C#N)=C1Sc2ccccc2N1CCCC [Example 18]
- λmax (Table 2, UV absorption maximum): 340
- E^11 [1]: 1250

Results, then the compound that gave them:

- λmax (Table 2, UV absorption maximum): 340
- E^11 [1]: 790
SMILES: CCCCCCN1C(=C(C#N)C(=O)OC2CC(C)CC(C)(C)C2)Sc2ccccc21 (stereo not shown) [Example 16]

- λmax (Table 2, UV absorption maximum): 340
- E^11 [1]: 830
SMILES: CCCCCCN1C(=C(C#N)C(=O)OCC(CC)CCCC)Sc2ccccc21 (stereo not shown) [Example 15]

- λmax (Table 3, UV absorption maximum): 340
- E^11 [3]: 1160
SMILES: CN1/C(=C(\C#N)C(=O)OCCS(=O)(=O)O)Sc2ccccc21 [Example 23]

- λmax (Table 3, UV absorption maximum): 348
- E^11 [3]: 740
SMILES: COC(=O)/C(C#N)=C1\Nc2ccc(C(=O)c3ccccc3)cc2N1 [Example 21]

- λmax (Table 2, UV absorption maximum): 340
- E^11 [1]: 1150
SMILES: CCCCC(CC)COC(=O)/C(C#N)=C1\Sc2ccccc2N1C (stereo not shown) [Example 13]

- λmax (Table 1, UV absorption maximum): 334
- E^11 [2]: 1776
SMILES: N#CC(C#N)=C1Nc2ccccc2S1 [Example 12]

- λmax (Table 1, UV absorption maximum): 308
- E^11 [2]: 1844
SMILES: N#CC(C#N)=C1Nc2ccccc2O1 [Example 10]

- λmax (Table 3, UV absorption maximum): 340
- E^11 [3]: 1200
SMILES: COC(=O)/C(C#N)=C1\Sc2ccccc2N1CCCS(=O)(=O)O [Example 20]

- λmax (Table 2, UV absorption maximum): 340
- E^11 [1]: 1090
SMILES: CC1CC(OC(=O)C(C#N)=C2Sc3ccccc3N2C)CC(C)(C)C1 (stereo not shown) [Example 14]

- λmax (Table 1, UV absorption maximum): 310
- E^11 [2]: 1778
SMILES: COC(=O)C(C#N)=C1Nc2ccccc2O1 [Example 11]

- λmax (Table 3, UV absorption maximum): 296
- E^11 [3]: 1503
SMILES: COC(=O)C(C#N)=c1[nH]c2cccc3cccc([nH]1)c32 [Example 24]

- λmax (Table 3, UV absorption maximum): 325
- E^11 [3]: 970
SMILES: CCCCCCN1C(=C(C#N)C(=O)OC)N(CCCCCC)c2ccccc21 [Example 22]

- λmax (Table 1, UV absorption maximum): 320
- E^11 [2]: 1854
SMILES: COC(=O)C(C#N)=C1Nc2ccc(C)cc2N1 [Example 9]
